Reference: ChEMBL document CHEMBL5726876, “NHE3-binding compounds and methods for inhibiting phosphate transport” (2019)
Several values for one entry are separate records, joined by “and”; a condition that tells them apart may be missing. Identical values can stand only once.

Columns and labels:
[1] = Cell-Based Assay of NHE3 Activity under Persistent Conditions: The ability of compounds to inhibit Rat NHE3-mediated Na+-dependent H+ antiport after application and washout was measured using a modification of the pH sensitive dye method described above. Opossum kidney (OK) cells were obtained from the ATCC and propagated per their instructions. The rat NHE3 gene was introduced into OK cells via electroporation, and cells were seeded into 96 well plates and grown overnight. Medium was aspirated from the wells, cells were washed twice with NaCl-HEPES buffer (100 mM NaCl, 50 mM HEPES, 10 mM glucose, 5 mM KCl, 2 mM CaCl2, 1 mM MgCl2, pH 7.4), then overlayed with NaCl-HEPES buffer containing 0-30 μM test compound.After a 60 min incubation, the test drug containing buffer was aspirated from the cells, cells were washed twice with NaCl-HEPES buffer without drug, then incubated for 30 min at room temperature with NH4Cl-HEPES buffer (20 mM NH4Cl, 80 mM NaCl, 50 mM HEPES, 5 mM KCl, 2 mM CaCl2, 1 mM MgCl2, pH 7.4) containing 5 uM BCECF-AM. Cells were washed twice with Ammonium free, Natfree HEPES (100 mM choline, 50 mM HEPES, 10 mM glucose, 5 mM KCl, 2 mM CaCl2, 1 mM MgCl2, pH 7.4) and incubated in the same buffer for 10 minutes at room temperature to lower intracellular pH. […] Initial rates were plotted as the average 2 or more replicates, and pIC50 values w
[2] = Cell-based activity under Prompt Conditions: Cell-based activity under Prompt Conditions. Rat or human NHE3-mediated Na+-dependent H+ antiport was measured using a modification of the pH sensitive dye method originally reported by Paradiso (PNAS USA. 81:7436-7440, 1984). Opossum kidney (OK) cells were obtained from the ATCC and propagated per their instructions. The rat NHE3 gene (GenBank M85300) or the human NHE3 gene (GenBank NM_004174.1) was introduced into OK cells via electroporation, and cells were seeded into 96 well plates and grown overnight. Medium was aspirated from the wells, cells were washed twice with NaCl-HEPES buffer (100 mM NaCl, 50 mM HEPES, 10 mM glucose, 5 mM KCl, 2 mM CaCl2, 1 mM MgCl2, pH 7.4), then incubated for 30 min at room temperature with NH4Cl-HEPES buffer (20 mM NH4Cl, 80 mM NaCl, 50 mM HEPES, 5 mM KCl, 2 mM CaCl2, 1 mM MgCl2, pH 7.4) containing 5 μM bis(acetoxymethyl) 3,3′-(3′,6′-bis(acetoxymethoxy)-5-((acetoxymethoxy)carbonyl)-3-oxo-3H-spiro[isobenzofuran-1,9′-xanthene]-2′,7′-diyl)dipropanoate (BCECF-AM).Cells were washed twice with Ammonium free, Na+-free HEPES (100 mM choline, 50 mM HEPES, 10 mM glucose, 5 mM KCl, 2 mM CaCl2, 1 mM MgCl2, pH 7.4) and incubated in the same buffer for 10 minutes at room temperature to lower intracellular pH. […] Initial rates were plotted as the average 2 or more replicates, and pIC50 values were estimated using GraphPad Prism.
[3] = Cell-based assay of NaP2b activity: The rate of phosphate (Pi) uptake into cells was measured using a modification of a literature method (see Mohrmann et al. Am. J. Phys. 250(3 pt 1):G323-30, 1986). Briefly, HEK293 cells were transiently transfected with an expression clone encoding either rat or human NaP2b. The next day, transfected cells were treated with a pharmacological agent to minimize endogenous PiT-mediated phosphate transport activity, such that the only remaining sodium-dependent phosphate transport activity is that which was bestowed by introduction of the NaP2b gene. Cells were incubated with radioactive inorganic phosphate in the presence or absence of varying concentrations of test compound. After a short time, cells were washed, harvested, and the amount of hot phosphate taken up in the cells determined by liquid scintillation counting.HEK293 cells were obtained from the American Type Culture collection and propagated per their instructions. Expression clones for rat and human NaP2b (SLC34A2) were obtained from Open Biosystems (Catalog numbers MRN1768-9510282, and MHS1010-99823026, respectively). There are two putative splice variants of human NaP2b, designated as isoform a and isoform b (NCBI Reference Sequences: NP_006415.2 and NP_ 001171470.1, respectively). […] […]

With `CN1Cc2c(Cl)cc(Cl)cc2[C@H](c2cccc(S(=O)(=O)NCCOCCOCCNC(=O)NCCCCNC(=O)NCCOCCOCCNS(=O)(=O)c3cccc([C@@H]4CN(C)Cc5c(Cl)cc(Cl)cc54)c3)c2)C1` [TENAPANOR] the IC50 [1] was 3.98 nM, the IC50 [2] was 9.33 nM and 10 nM and the IC50 [3] was less than 31600 nM.

In the case of `CN1Cc2c(Cl)cc(Cl)cc2[C@@H](c2cccc(S(=O)(=O)NCCOCCOCCNC(=O)NCCCCNC(=O)NCCOCCOCCNS(=O)(=O)c3cccc([C@H]4CN(C)Cc5c(Cl)cc(Cl)cc54)c3)c2)C1`, the IC50 [1] is reported as 2510 nM and the IC50 [2] is reported as < 10000 nM and 50.1 nM.

`O=C(NCCCCNC(=O)NCCOCCOCCNS(=O)(=O)c1ccc(O[C@H]2c3cc(Cl)cc(F)c3C[C@@H]2N2CC[C@@H](O)C2)cc1)NCCOCCOCCNS(=O)(=O)c1ccc(O[C@H]2c3cc(Cl)cc(F)c3C[C@@H]2N2CC[C@@H](O)C2)cc1` gave an IC50 [2] of less than 10000 nM.

`CNC(=O)CN(CCN(CC(=O)O)CC(=O)NCCOCCOCCNC(=O)NCCOCCOCCOCCOc1cccc(-c2nc(NC(=N)N)nc3ccc(Cl)cc23)c1)CC(=O)O` showed an IC50 [2] of 20 nM.

Compound `O=C(NCCCCNC(=O)NCCOCCOCCNS(=O)(=O)c1ccc(O[C@H]2c3cc(F)ccc3C[C@@H]2N2CCCCC2)cc1)NCCOCCOCCNS(=O)(=O)c1ccc(O[C@H]2c3cc(F)ccc3C[C@@H]2N2CCCCC2)cc1` has an IC50 [2] of 1.26 nM.

With `C/C(=C\c1cc(F)c(Oc2ccc(S(=O)(=O)NCCOCCOCCOCCNC(=O)COCC(=O)NCCOCCOCCOCCNS(=O)(=O)c3ccc(Oc4c(F)cc(/C=C(\C)C(=O)N=C(N)N)cc4F)cc3)cc2)c(F)c1)C(=O)N=C(N)N` the IC50 [2] was 50.1 nM.

In the case of `CN1Cc2c(Cl)cc(Cl)cc2[C@H](c2cccc(S(=O)(=O)NCCOCCOCCOCCNCc3ccc(-c4ccc(Cl)cc4)cc3)c2)C1`, the IC50 [2] is reported as less than 10000 nM.

For `C/C(=C\c1cc(F)c(Oc2ccc(S(=O)(=O)NCCOCCOCCOCCN)cc2)c(F)c1)C(=O)N=C(N)N`, the IC50 [2] was 126 nM.

`CN(C)CC(=O)NC(CCC(=O)NCCOCCOCCNS(=O)(=O)c1cccc([C@@H]2CN(C)Cc3c(Cl)cc(Cl)cc32)c1)(CCC(=O)NCCOCCOCCNS(=O)(=O)c1cccc([C@@H]2CN(C)Cc3c(Cl)cc(Cl)cc32)c1)CCC(=O)NCCOCCOCCNS(=O)(=O)c1cccc([C@@H]2CN(C)Cc3c(Cl)cc(Cl)cc32)c1` showed an IC50 [2] of 79.4 nM.

`C/C(=C\c1cc(F)c(Oc2ccc(S(=O)(=O)NCCOCCOCCOCCNC(=O)CN(CCN(CC(=O)O)CC(=O)NCCOCCOCCOCCNS(=O)(=O)c3ccc(Oc4c(F)cc(/C=C(\C)C(=O)N=C(N)N)cc4F)cc3)CC(=O)O)cc2)c(F)c1)C(=O)N=C(N)N` showed an IC50 [2] of 31.6 nM.

Compound `CN1Cc2c(Cl)cc(Cl)cc2[C@H](c2cccc(S(=O)(=O)NCCOCCOCCN(C)C(=O)CCC(N)(CCC(=O)N(C)CCOCCOCCNS(=O)(=O)c3cccc([C@@H]4CN(C)Cc5c(Cl)cc(Cl)cc54)c3)CCC(=O)N(C)CCOCCOCCNS(=O)(=O)c3cccc([C@@H]4CN(C)Cc5c(Cl)cc(Cl)cc54)c3)c2)C1` has an IC50 [2] of 15.8 nM.

Work on `CN1Cc2c(Cl)cc(Cl)cc2[C@H](c2cccc(S(=O)(=O)NCCOCCOCCOCCNC(=O)c3cc(C(=O)NCCOCCOCCOCCNS(=O)(=O)c4cccc([C@@H]5CN(C)Cc6c(Cl)cc(Cl)cc65)c4)cc(C(=O)NCCOCCOCCOCCNS(=O)(=O)c4cccc([C@@H]5CN(C)Cc6c(Cl)cc(Cl)cc65)c4)c3)c2)C1` yielded an IC50 [2] of 126 nM.

Compound `NCCOCCOCCNS(=O)(=O)c1ccc(O[C@H]2c3cc(Cl)cc(Cl)c3C[C@@H]2N2CCCCC2)cc1` has an IC50 [2] of less than 10000 nM.

In the case of `NCCOCCOCCOCCN1CCN(c2ccc(-c3nc(N=C(N)N)nc4ccc(Cl)cc34)cc2)CC1`, the IC50 [2] is reported as 56.2 nM and 126 nM.

`CN1Cc2c(Cl)cc(Cl)cc2[C@H](c2cccc(S(=O)(=O)NCCOCCOCCOCCNC(=O)CCC(CCC(=O)NCCOCCOCCOCCNS(=O)(=O)c3cccc([C@@H]4CN(C)Cc5c(Cl)cc(Cl)cc54)c3)(CCC(=O)NCCOCCOCCOCCNS(=O)(=O)c3cccc([C@@H]4CN(C)Cc5c(Cl)cc(Cl)cc54)c3)NC(=O)c3ccc(-c4ccc(Cl)cc4)cc3)c2)C1` showed an IC50 [2] of 5010 nM.

Compound `CN1Cc2c(Cl)cc(Cl)cc2[C@H](c2cccc(S(=O)(=O)NCCOCCOCCNC(=O)NCCN(CCNC(=O)NCCOCCOCCNS(=O)(=O)c3cccc([C@@H]4CN(C)Cc5c(Cl)cc(Cl)cc54)c3)C(=O)NCCOCCOCCNC(=O)c3ccc(-c4ccc(Cl)cc4)cc3)c2)C1` has an IC50 [2] of 1580 nM.

Compound `CN1Cc2c(Cl)cc(Cl)cc2[C@H](c2cccc(S(=O)(=O)NCCOCCOCCNC(=O)CCC(CCC(=O)NCCOCCOCCNS(=O)(=O)c3cccc([C@@H]4CN(C)Cc5c(Cl)cc(Cl)cc54)c3)(CCC(=O)NCCOCCOCCNS(=O)(=O)c3cccc([C@@H]4CN(C)Cc5c(Cl)cc(Cl)cc54)c3)NC(=O)NCCN3CCOCC3)c2)C1` has an IC50 [2] of 63.1 nM.

For `CN1Cc2c(Cl)cc(Cl)cc2[C@H](c2cccc(S(=O)(=O)NCCOCCOCCNC(=O)CCC(=O)NCCOCCOCCNS(=O)(=O)c3ccc(O[C@H]4c5ccccc5C[C@@H]4N4CCCCC4)cc3)c2)C1`, the IC50 [2] was 31.6 nM.

`CN1Cc2c(Cl)cc(Cl)cc2[C@H](c2cccc(S(=O)(=O)NCCOCCOCCNC(=O)CCC(CCC(=O)NCCOCCOCCNS(=O)(=O)c3cccc([C@@H]4CN(C)Cc5c(Cl)cc(Cl)cc54)c3)(CCC(=O)NCCOCCOCCNS(=O)(=O)c3cccc([C@@H]4CN(C)Cc5c(Cl)cc(Cl)cc54)c3)NC(=O)N(C)C[C@H](O)[C@@H](O)[C@H](O)[C@H](O)CO)c2)C1` showed an IC50 [2] of 7.94 nM.

Compound `COCCNC(=O)CN(C)CC(=O)NCCOCCOCCNC(=O)NCCOCCOCCOCCOc1ccc(-c2nc(NC(=N)N)nc3ccc(Cl)cc23)cc1` has an IC50 [2] of 12.6 nM.

For `COCCOCCOCCOCCC(=O)NCCOCCOCCOCCN1CCN(c2cccc(-c3nc(NC(=N)N)nc4ccc(Cl)cc34)c2)CC1`, the IC50 [2] was 50.1 nM.
